From patent US9023767B2, “γ-Secretase substrates and methods of use” (Memorial Sloan-Kettering Cancer Center, priority 2009, dated 2015)
“And” between values parts separate entries of the source, which are not always exact repeats. Equal entries are not always repeated. Each block holds one molecule with its values, some of them ahead of it.

Columns and labels:
γ-secretase [1] = target: T1, γ-secretase (Mus musculus (Mouse), UniProt P49769); assay: Cellular γ-secretase activity, secreted Aβ40 from N2A APP stable cells; type: cell-based; conditions: 48 hrs
Experimental: FIG. 5. […] The conditioned media were collected and secreted Aβ40 was measured with 6E10/G2-10 antibodies (mean±SEM; n=3). The activities of the peptide treatments were normalized to the DMSO treatment. […] The same experiments were performed as FIG. 5c. The cell lysates were analyzed by CT-15 antibody. Upper panel: full length APP. Lower panel: CTFs. […] The ΔE-Notch1 (a Notch construct with deletion of the extracellular portion and tagged by Myc) was transfected into HEK293 cells.
After transfection or compound treatment, conditioned cell media were collected and diluted in RIPA buffer. Secreted Aβ peptides were detected by ECL assay using biotinylated 6E10 and ruthenylated G2-10 antibodies.

γ-secretase [2] = target: T2, γ-secretase (Homo sapiens (Human), UniProt P49768); assay: In vitro γ-secretase assay, solubilized γ-secretase, ECL; type: biochemical; conditions: Sb4 substrate
Text: The γ-secretase cleaved Aβ product derived from C100Flag substrate was detected by a pair of antibodies (biotinylated 4G8 and ruthenylated G2-10*) while Sb4 cleaved product was detected by ruthenylated G2-10* alone (FIG. 10a) and quantified using electrochemiluminescence (ECL) technology.
An in vitro assay was based on the one previously reported by Li et al. (2000), except we utilized Sb4 substrate that eliminated the need for biotinylated antibody. […] All assays incorporate ruthenylated G2-10* antibody to detect 40-site cleavage of APP or recombinant Sb4 substrate and quantitated activity by measuring ECL.

γ-secretase [3] = target: T1, γ-secretase; assay: Cell-based activity assay, N2A cells stably over-expressing APP; conditions: 24 hrs, Aβ40; read-out: Cell-based (nM), IC50
Experimental: (§1) The potency of two structurally different GSIs was assayed in four unique γ-secretase activity assays. IC50 values were determined from the dose response curves using a non-linear regression analysis in the Prism software. An in vitro assay was based on the one previously reported by Li et al. (2000), except we utilized Sb4 substrate that eliminated the need for biotinylated antibody. The cell-based activity assay used N2A mouse neuroblastoma cells stably over-expressing APP and a biotinylated 4G8 antibody that binds the C-terminus of the amyloid beta peptide. The exo-cell assay incubated HeLa cells simultaneously with GSI, Sb4 substrate as well as 0.25% CHAPSO detergent prior to detecting substrate cleavage. Finally, the extended exo-cell assay first incubated HeLa cells with GSI for 24 hrs. Subsequently, the cells were washed 1× in PBS and then incubated with Sb4 substrate and CHAPSO detergent. The assay was then carried out exactly as described for the original exo-cell method. All assays incorporate ruthenylated G2-10* antibody to detect 40-site cleavage of APP or recombinant Sb4 substrate and quantitated activity by measuring ECL. The latter assays were performed as previously described (Li et al., 2000). In the in vitro assay, recombinant Sb4 substrate was incubated for 2.5 hours at 37° C. in pH 7.0 PIPES buffer in the presence of 0.25% CHAPSO detergent and solubilized γ-secretase at a final concentration of 40 ng/ul. The detection of cleaved substrate was determined using ruthenylated G2-10* antibody. Since the Sb4 substrate is biotinylated additional 6E10 biotinylated antibody used in earlier assays is not required. In the cell-based assay, N2A mouse neuroblastoma cells that stably overexpress amyloid precursor protein were incubated with γ-secretase inhibitors in a final concentration of 1% DMSO for 24 hrs. Following incubation, the supernatant was removed from the cells and assayed for Aβ40, the cleaved APP product, using ruthenylated G2-10* antibody as well as biotinylated 4G8 antibody.

γ-secretase [4] = target: T2, γ-secretase; assay: Exo-cell γ-secretase assay, HeLa cells, Sb4 substrate; type: cell-based
Experimental: Therefore, HeLa cells were first incubated with Sb4 substrate, as well as CHAPSO detergent as depicted in FIG. 14c. Cells were seeded at their indicated concentration in 96-well plates and allowed to attach overnight. The next day, media was removed and cells were washed once with PBS. Fresh media was then added containing 0.25% CHAPSO detergent, Sb4 substrate to a final concentration of 1 μM, and 1% DMSO or γ-secretase inhibitor. This was incubated for 2.5 hours at 37° C. Media was removed and cell debris was pelleted from this media for 5 min. at 3,500 rpm. Supernatant was then added to ruthenylated G2-10* antibody that recognizes cleaved product, but not uncleaved substrate. This was incubated for an additional 2 hours at room temperature. Finally, magnetic streptavidin beads were added to a final concentration of 80 μg/ml and incubated for 30 min. at room temperature. Assay buffer was added to the samples and γ-secretase-mediated cleavage of substrate was monitored using electrochemiluminescence (ECL) (Li et al., 2000). (FIG. 14c).
as §1

γ-secretase [5] = target: T2, γ-secretase; assay: Extended exo-cell γ-secretase assay, HeLa cells; type: cell-based; conditions: 24 hrs pretreatment; read-out: Extended Exo-Cell (nM), IC50
Experimental: as §1, with “In the cell-based assay, N2A mouse neuroblastoma cells that stably overexpress amyloid precursor protein were incubated with γ-secretase inhibitors in a final concentration of 1% DMSO for 24 hrs. Following incubation, the supernatant was removed from the cells and assayed for Aβ40, the cleaved APP product, using ruthenylated G2-10* antibody as well as biotinylated 4G8 antibody.” left out
The exo-cell assay was adapted to monitor real-time γ-secretase activity and inhibition over extended times of pretreatment regimens. […] This modified, extended treatment exo-cell assay is capable of quantifying remaining γ-secretase activity following drug treatment on virtually any cell type. The IC50 values for Compound E and GSI-34 were calculated using the extended exo-cell assay (Table 3 and FIG. 15d). […]

A20 mouse lymphoma cells = assay: Lymphoma cell proliferation assay, [3H]thymidine incorporation; type: cell-based; conditions: 48 hours
Experimental: For a lymphoma cell proliferation assay, A20 mouse lymphoma cells were seeded in a 96-well plate at a concentration of 5×10^5 cells/ml in 100 μl RPMI media containing 2% fetal bovine serum. An additional 100 μl of media containing DMSO or γ-secretase inhibitor was added and incubated for 48 hours at 37° C. After this incubation, the cells were incubated for 5 hours with 2 μCi/ml [^3H]thymidine at 37° C. Proliferative response was then evaluated by harvesting the tritiated DNA from cells using a Skatron cell harvester and proliferation assessed as a function of [^3H]thymidine incorporation measured on a β-counter.

γ-secretase [6] = target: T3, γ-secretase (Homo sapiens (Human), UniProt P49768+Q92542); assay: In vitro γ-secretase assay, HeLa membrane, APP-derived substrates, ECL detection; type: biochemical
Experimental: The recombinant proteins were incubated with γ-secretase (40 μg/ml) in the presence or absence of 1 μM γ-secretase inhibitor L-685,458 (CAS [292632-98-5], shown below). The reaction mixture contains 0.25% 3[(3-cholamidopropyl) dimethylammonio]-2-hydroxypropanesulfonic acid (CHAPSO), 0.1 μg/μl BSA, protease inhibitor, 50 mM PIPES, pH 7.0, 5 mM MgCl2, 5 mM CaCl2 and 150 mM KCl. The reaction was incubated for 2.5 hr at 37° C. and stopped by adding RIPA buffer (150 mM NaCl, 1.0% NP-40, 0.5% sodium
[drawing 1] deoxycholate, 0.1% SDS, 50 mM Tris HCl, pH 8.0). The products were detected with various antibody combinations as previously described (Lai et al., 2003; J. Biol. Chem., 278: 22475-22481; Li et al., 2000, Proc. Natl. Acad. Sci. USA, 97: 6138-6143; Yin et al., 2007, J. Biol. Chem., 282:23639-23644) using electrochemiluminescence (ECL). The amount of product was determined using synthetic peptide or recombinant standards. The Km and Vmax were determined from the Michaelis-Menten equation Michaelis-Menten Kinetics (ν=Vm[S]/([…]; ν: initial rate; Vm: maximum velocity; Km: the Michaelis-Menten constant, S: substrate). P-values were calculated from Student t-test. 7.1.5 Cell-Based Aβ Production Assay and Western Blot

γ-secretase [7] = target: T3, γ-secretase; assay: In vitro γ-secretase cleavage of Notch1 peptide substrate, HeLa membrane, Val1744 antibody; type: biochemical
Experimental: FIG. 4. […] Various concentrations of inhibitor were incubated with APP substrate (S4) or Notch peptide substrate containing the C-terminal biotinylated transmembrane domain of Notch1 and HeLa cell membrane in the presence of 0.25% CHAPSO. Aβ40 was detected by G2-10 antibody. […] Activities are expressed as percentage relative to reading that was produced in DMSO control. […] Various concentrations of S4 substrate were incubated with HeLa membrane in fixed concentrations of inhibitor as indicated. The double reciprocal velocity (1/v) and substrate concentrations (1/S) are plotted to determine the type of inhibition. […] Assays were conducted as described in FIG. 4A. […] The labeled samples were solubilized with RIPA buffer. Biotinylated proteins were captured with streptavidin-agarose and probed by immunoblotting using antibodies against biotin, PS1-CTF, PS1-NTF, Nicastrin, PEN-2 and APH-1a. HeLa cell membrane proteins were directly loaded onto lanes indicated by an arrow in the PEN-2 and APH-1a blots as positive controls. […] Upper panel: PS1-NTF; Lower panel: PS1-CTF. […] Rev.

γ-secretase [8] = target: T1, γ-secretase; assay: In vitro γ-secretase activity from mouse brain membrane; type: biochemical
Experimental: (§2) FIG. 3. Effect of the inhibitory domain on in vitro γ-secretase activity. […] The γ-secretase cleavage site is indicated by an arrow between orange and blue shades. The Aβ17-23 region is marked by dotted square. (B) The kinetic analyses of γ-secretase reactivity with βCTF and βCTFΔ substrates. […] The product Aβ40 was assayed with biotinylated 6E10 and ruthenylated G2-10 antibodies by ECL. […] Note: […] The product Aβ38 was assayed with biotinylated 6E10 and ruthenylated Aβ38 antibodies (purchased from Dr. […]) (data represent the mean of duplicates with variance<10%). (E) The effect of an inhibitory domain on γ-secretase activity for ACID production. HEK293 cell membrane was prepared from cells that have been transfected with β[…] et al., 1999) and βCTFΔ(SPA4CTΔ) constructs for 48 hours. Cell membranes (2 mg/ml) were incubated in the absence and presence of 2 μM L-685,458 and then analyzed by Western blotting with CT-15 antibody (Chen et al., 2002). It was next determined whether γ-secretase from other sources has the same preference for the βCTFΔ substrate. […] Product formation was monitored by G2-10 and G2-11 antibodies, respectively. […] In addition, the γ-secretase activity was assayed for Aβ38 production and ε-cleavage (FIGS. 3D and 3E). The Aβ38-site cleavage was detected with a combination of biotinylated 6E10 and ruthenylated anti-Aβ38 antibodies. […]

γ-secretase [9] = target: T2, γ-secretase; assay: AICD production (ε-cleavage), membranes of transfected HEK293 cells, Western blot; type: biochemical
Experimental: as §2

inhibition at 100 µM (γ-secretase [1]; 100 μM, read-out: inhibition of the production of Aβ): 70%
Molecule: COC(=O)CC[C@@H](NC(=O)[C@H](N)CC(=O)OC)C(=O)N[C@H](C)C(=O)N[C@H](Cc1ccccc1)C(=O)N[C@H](Cc1ccccc1)C(=O)N[C@@H](C(=O)N[C@H](CC(C)C)C(N)=O)C(C)C [RI-PM-1]
effect on secreted Aβ species (γ-secretase [1]; 100, 60 and 30 μM): reduces secreted Aβ species in a dose dependent manner

IC50 (γ-secretase [2]): 1 nM | IC50 (γ-secretase [3]): 32.4 nM | IC50 (γ-secretase [4]; ECL detection, read-out: Exo-Cell (nM), IC50): 5.9 nM | IC50 (γ-secretase [4]; HTRF detection, read-out: IC50, exo-cell assay): 5.4 nM | IC50 (γ-secretase [5]): 38.7 nM and 39 nM
Molecule: O=C(COc1ccc(F)cc1)Nc1ccc2c(c1)CC1CCC(C2)C1NS(=O)(=O)c1ccc(Cl)s1 (centres unmarked) [GSI-34]
reduction of cellular proliferation (A20 mouse lymphoma cells; 300 nM): 30% | inhibition of cellular proliferation (A20 mouse lymphoma cells): able to inhibit cellular proliferation

inhibition of γ-secretase activity, APP processing (γ-secretase [6]): did not inhibit | inhibition of γ-secretase activity, Notch processing (γ-secretase [7]): did not inhibit
Molecule: VKSEPVEPPL [S2-site derived Notch peptide, N-terminal residues of NEXT]

reaction rate of hydrolysis compared to βCTF, 40-site (γ-secretase [8]; G2-10): 25 times | reaction rate of hydrolysis compared to βCTF, 42-site (γ-secretase [8]; G2-11): 11 times | effect of domain deletion on ε-cleavage (AICD) (γ-secretase [9]): no effect
B1: βCTFΔ: βCTF in which the Aβ17-23 inhibitory domain is deleted (protein, listed as Homo sapiens)
chain: GSHMDAEFRHDSGYEVHHQKVGSNKGAIIGLMVGGVVIATVIVITLVMLKKKQYTSIHHGVVEVDAAVTPEERHLSKMQQNGYENPTYKFFEQMQNDYKDDDDK
